Measured values as given in patent publication US20250304576A1 (Cancer Research Technology Limited, priority 2022, published 2025).
pKi: −log10 of the molar value.

Key:
Recombinant IKKα = target: T1, Recombinant IKKα (Homo sapiens, UniProt O15111); experiment: DELFIA IKKα kinase assay (apparent Ki, Cheng-Prusoff); format: biochemical
T1 construct: purchased Millipore, Dundee, UK
T1 sequence (O15111 1-745): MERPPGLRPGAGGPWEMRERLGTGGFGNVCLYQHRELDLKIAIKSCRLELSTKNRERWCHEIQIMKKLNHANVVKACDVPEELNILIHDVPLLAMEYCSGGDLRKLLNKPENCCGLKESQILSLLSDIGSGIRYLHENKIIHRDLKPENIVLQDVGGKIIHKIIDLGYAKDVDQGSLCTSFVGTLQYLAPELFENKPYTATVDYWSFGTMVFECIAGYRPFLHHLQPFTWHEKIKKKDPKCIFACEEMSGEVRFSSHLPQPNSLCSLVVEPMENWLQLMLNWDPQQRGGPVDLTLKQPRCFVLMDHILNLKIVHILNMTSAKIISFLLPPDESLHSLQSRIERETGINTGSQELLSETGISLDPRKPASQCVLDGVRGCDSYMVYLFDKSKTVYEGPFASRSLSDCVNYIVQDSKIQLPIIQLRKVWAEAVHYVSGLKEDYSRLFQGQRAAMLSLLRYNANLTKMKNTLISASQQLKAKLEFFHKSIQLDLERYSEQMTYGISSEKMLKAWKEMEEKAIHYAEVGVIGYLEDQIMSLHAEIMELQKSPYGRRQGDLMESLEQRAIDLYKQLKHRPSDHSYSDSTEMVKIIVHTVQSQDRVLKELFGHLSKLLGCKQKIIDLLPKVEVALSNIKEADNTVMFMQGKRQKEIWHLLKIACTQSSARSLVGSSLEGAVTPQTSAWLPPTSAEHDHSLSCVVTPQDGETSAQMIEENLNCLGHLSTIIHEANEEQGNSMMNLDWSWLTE
Protocol: (§1) IKKα and IKKβ inhibitory activity was determined using three different assays: a dissociation enhanced ligand fluorescent immunoassay (DELFIA) based on the protocol of HTScan™ IKKβ Kinase Assay (Cell Signaling Technology, USA); an Adapta IKKα assay (performed by Life Technologies); a Z′-LYTE™ IKKβ assay (performed by Life Technologies).
(§2) Recombinant IKKα or IKKβ, 37 nM, (Millipore, Dundee, UK) was incubated with IηB-α (Ser32) (New England Biolabs, Hitchin, UK) biotinylated peptide substrate (0.375 μM) and 40 μM ATP in assay buffer (40 mM Tris-HCl (pH 7.5), 20 mM MgCl2, EDTA 1 mM, DTT 2 mM and BSA 0.01 mg/ml) in a V-well 96-well plate in the presence and absence of test compound. The assay plate was incubated for 60 minutes at 30° C. after which the kinase reaction was quenched by the addition of 50 mM EDTA, pH8. The resulting mixture was transferred to a streptavidin coated 96-well plate (Perkin Elmer, Beaconsfield, UK) and incubated for 1 hour at 30° C. to immobilise the substrate peptide. After three washes with wash buffer (0.01 M phosphate buffered saline (PBS), 0.05% Tween −20, pH 7.4) a primary antibody against the phosphorylated substrate (phospho-IηB-a) (Ser32/36) (5A5) Mouse mAb (New England Biolabs, Hitchin, UK) (1:1000 dilution with 1% bovine serum albumin (BSA) in wash buffer) was added and incubated at 37° C. for 2 h.
(§3) After a further three washes, a secondary europiated antibody (Eu-N1 labelled anti-mouse IgG, (Perkin Elmer, Beaconsfield, UK) diluted 1:500 in 1% BSA/wash buffer) was added and incubated at 30° C. for 30 minutes. After a further five washes, DELFIA enhancement solution—(Perkin Elmer, Beaconsfield UK) was added and allowed to incubate for 10 min at room temperature, protected from light, to facilitate the chemifluorescent detection. The relative fluorescence units (RFU) signal were measured on a Wallac Victor 1420 multilabel counter (Perkin Elmer, Beaconsfield, UK), in time-resolved fluorescence mode. The counter was set at an excitation wavelength of 340 nm with a 400 μs delay before detecting emitted light at 615 nm. The apparent Ki of the […] was calculated for each compound using the Cheng-Prusoff Equation.
(§4) The IKKα and IKKβ figures quoted in non-italicised form are from the DELFIA assay described above.

Recombinant IKKβ = target: T2, Recombinant IKKβ (Homo sapiens, UniProt O14920); experiment: DELFIA IKKβ kinase assay (apparent Ki, Cheng-Prusoff); format: biochemical
T2 construct: purchased Millipore, Dundee, UK
T2 sequence (O14920 1-756): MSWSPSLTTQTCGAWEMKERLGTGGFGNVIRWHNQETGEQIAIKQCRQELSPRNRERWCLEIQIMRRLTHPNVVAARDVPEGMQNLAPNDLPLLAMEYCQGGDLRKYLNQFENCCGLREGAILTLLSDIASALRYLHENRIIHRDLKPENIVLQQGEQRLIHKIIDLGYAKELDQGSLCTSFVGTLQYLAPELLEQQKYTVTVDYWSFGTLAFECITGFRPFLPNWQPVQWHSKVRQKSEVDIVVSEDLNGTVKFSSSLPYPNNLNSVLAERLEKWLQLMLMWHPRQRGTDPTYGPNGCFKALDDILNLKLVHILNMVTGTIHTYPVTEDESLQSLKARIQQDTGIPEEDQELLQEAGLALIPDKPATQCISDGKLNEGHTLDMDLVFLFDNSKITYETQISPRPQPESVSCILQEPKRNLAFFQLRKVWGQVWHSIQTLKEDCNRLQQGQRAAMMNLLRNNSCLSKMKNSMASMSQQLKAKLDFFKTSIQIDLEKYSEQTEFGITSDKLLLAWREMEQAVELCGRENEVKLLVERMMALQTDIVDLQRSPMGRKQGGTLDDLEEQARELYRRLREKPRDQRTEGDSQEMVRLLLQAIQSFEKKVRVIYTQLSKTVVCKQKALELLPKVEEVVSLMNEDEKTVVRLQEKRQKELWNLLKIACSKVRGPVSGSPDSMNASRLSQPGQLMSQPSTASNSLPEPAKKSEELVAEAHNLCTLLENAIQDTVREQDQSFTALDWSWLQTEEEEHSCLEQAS
Protocol: as §1, §2, §3, §4

[1] = non-italicised figure: DELFIA assay
[2] = DELFIA assay (first line of an example)

Structure (SMILES) | pKi (Recombinant IKKα; [1]) | pKi (Recombinant IKKβ; [1]) | pKi (Recombinant IKKα; [2]) | pKi (Recombinant IKKβ; [2])
CC(C)Nc1cc(-c2ccc3[nH]nc(N)c3c2)ccn1 [Example 14, 5-(2-(Isopropylamino)pyridin-4-yl)-1H-indazol-3-amine] | 7.12 | 6.23 | – | –
Nc1n[nH]c2ccc(-c3ccnc(NCCN4CCOCC4)c3)cc12 [Example 30, 5-(2-((2-Morpholinoethyl)amino)pyridine-4-yl)-1H-indazol-3-amine] | 6.47 | 6.42 | – | –
CC(C)N(CCNC(=O)c1cc2c(-c3ccc4[nH]nc(N)c4c3)ccnc2[nH]1)C(C)C [Example 246, 4-(3-Amino-1H-indazol-5-yl)-N-(2-(diisopropylamino)ethyl)-1H-pyrrolo[2,3-b]pyridine-2-carboxamide] | – | – | 8.05 | 6.98
Nc1n[nH]c2ccc(-c3ccnc(NC(=O)NCCc4ccccc4)c3)cc12 [Example 46, 1-(4-(3-Amino-1H-indazol-5-yl)pyridin-2-yl)-3-phenethylurea] | 6.24 | < 5.00 | – | –
Nc1n[nH]c2c(C#CC3(O)CCCC3)cc(-c3ccnc(NC4COC4)c3)cc12 [Example 305, 1-((3-Amino-5-(2-(oxetan-3-ylamino)pyridin-4-yl)-1H-indazol-7-yl)ethynyl)cyclopentan-1-ol] | – | – | 7.02 | 5.96
CCOC(=O)c1cccc(-c2cc(-c3ccnc(N)c3)cc3c(N)n[nH]c23)c1 [Example 112, Ethyl 3-(3-amino-5-(2-aminopyridin-4-yl)-1H-indazol-7-yl)benzoate] | 6.82 | 5.83 | – | –
CC(C)C#Cc1cc(-c2ccnc(N)c2)cc2c(N)n[nH]c12 [Example 134, 5-(2-Aminopyridin-4-yl)-7-(3-methylbut-1-yn-1-yl)-1H-indazol-3-amine] | 8.52 | 6.52 | – | –
CCOC(=O)Nc1cc(-c2cc(C#CC(C)(C)C)c3[nH]nc(N)c3c2)ccn1 [Example 191, Ethyl (4-(3-amino-7-(3,3-dimethylbut-1-yn-1-yl)-1H-indazol-5-yl)pyridin-2-yl)carbamate] | – | – | 7.70 | 5.80
CC(C)(O)C#Cc1cc(-c2ccnc(NC(=O)C3CC3)c2)cc2c(N)n[nH]c12 [Example 290, N-(4-(3-Amino-7-(3-hydroxy-3-methylbut-1-yn-1-yl)-1H-indazol-5-yl)pyridin-2-yl)cyclopropanecarboxamide] | – | – | 7.26 | 6.62
COC(=O)Nc1cc(-c2cc(C#CC3CCOCC3)c3[nH]nc(N)c3c2)ccn1 [Example 285] | – | – | 7.43 | 6.56
Nc1cc(-c2cc(-c3cccc(F)c3)c3[nH]nc(N)c3c2)ccn1 [Example 105, 5-(2-Aminopyridin-4-yl)-7-(3-fluorophenyl)-1H-indazol-3-amine] | 7.40 | 6.30 | – | –
CCC(O)(CC)c1cc2c(-c3ccc4[nH]nc(N)c4c3)ccnc2[nH]1 [Example 226, 3-(4-(3-Amino-1H-indazol-5-yl)-1H-pyrrolo[2,3-d]pyridin-2-yl)pentan-3-ol] | – | – | 7.02 | 6.04
Cn1cc(Nc2cc(-c3cc(C#CC(C)(C)C)c4[nH]nc(N)c4c3)ccn2)cn1 [Example 303, 7-(3,3-dimethylbut-1-yn-1-yl)-5-(2-((1-methyl-1H-pyrazol-4-yl)amino)pyridin-4-yl)-1H-indazol-3-amine] | – | – | 7.44 | 7.17
CC(C)(C)C#Cc1cc(-c2ccnc(NCCN)c2)cc2c(N)n[nH]c12 [Example 161, N^1-(4-(3-Amino-7-(3,3-dimethylbut-1-yn-1-yl)-1H-indazol-5-yl)pyridin-2-yl)ethane-1,2-diamine] | 6.89 | 5.12 | – | –
Nc1nccc(-c2ccc3[nH]nc(N)c3c2)c1C#CCCN1CCOCC1 [Example 94, 5-(2-Amino-3-(4-morpholinobut-1-yn-1-yl)pyridin-4-yl)-1H-indazol-3-amine] | 7.42 | 6.04 | – | –
Nc1n[nH]c2ccc(-c3ccnc(NC(=O)Nc4cccc(C(=O)Nc5ccccc5)c4)c3)cc12 [Example 61, 3-(3-(4-(3-Amino-1H-indazol-5-yl)pyridine-2-yl)ureido)-N-phenylbenzamide] | 6.77 | 6.38 | – | –
CN(C)CCNC(=O)c1cc2c(-c3ccc4[nH]nc(N)c4c3)ccnc2[nH]1 [Example 242, 4-(3-Amino-1H-indazol-5-yl)-N-(2-(dimethylamino)ethyl)-1H-pyrrolo[2,3-b]pyridine-2-carboxamide] | – | – | 8.10 | 6.42
Nc1n[nH]c2c(C#CCCOc3ccccc3)cc(-c3ccnc4[nH]ccc34)cc12 [Example 216, 7-(4-Phenoxybut-1-yn-1-yl)-5-(1H-pyrrolo[2,3-b]pyridin-4-yl)-1H-indazol-3-amine] | – | – | 7.80 | 7.09
COc1cccc(-c2cc(-c3ccnc(N)c3)cc3c(N)n[nH]c23)c1 [Example 109, 5-(2-Aminopyridin-4-yl)-7-(3-methoxyphenyl)-1H-indazol-3-amine] | 7.26 | 6.23 | – | –
CC(C)c1ccccc1NC(=O)Nc1cc(-c2ccc3[nH]nc(N)c3c2)ccn1 [Example 68, 1-(4-(3-Amino-1H-indazol-5-yl)pyridin-2-yl)-3-(2-isopropylphenyl)urea] | 7.00 | 5.72 | – | –
CNC(=O)Nc1cc(-c2cc(C#CC(C)(C)C)c3[nH]nc(N)c3c2)ccn1 [Example 186, 1-(4-(3-Amino-7-(3,3-dimethylbut-1-yn-1-yl)-1H-indazol-5-yl)pyridin-2-yl)-3-methylurea] | 7.47 | 5.46 | – | –
Nc1n[nH]c2ccc(-c3ccnc(NC(=O)NCc4ccccn4)c3)cc12 [Example 47, 1-(4-(3-Amino-1H-indazol-5-yl)pyridin-2-yl)-3-(pyridin-2-ylmethyl)urea] | 7.42 | 6.08 | – | –
CC(C)(C)C#Cc1cc(-c2ccnc(NC(=O)C3CC3)c2)cc2c(N)n[nH]c12 [Example 167, N-(4-(3-Amino-7-(3,3-dimethylbut-1-yn-1-yl)-1H-indazol-5-yl)pyridin-2-yl)cyclopropane carboxamide] | 7.82 | 5.95 | – | –
Nc1n[nH]c2ccc(-c3ccnc(NCCCCCO)c3)cc12 [Example 23] | 7.48 | 6.47 | – | –
